{"source": "patent US20260078341A1", "about": "“TREATMENT OF CANCER USING CHIMERIC ANTIGEN RECEPTOR” (Novartis AG, priority 2014, published 2026)", "key": {"[1]": {"test_system": "H1N1 A/California/07/2009", "experiment": "Hemagglutination inhibition titers after influenza vaccination, A/H1N1 vaccine strain", "assay_type": "in vivo, human", "settings": "for HI GMT ratio (CV %) A/H1N1: GMT at week 4 post vaccination/GMT at baseline", "method": "(§1) The trial was observer-blind because the placebo in the RAD001 0.5 mg daily and 20 mg weekly cohorts differed slightly from the RAD001 tablets in those cohorts. […] The treatment duration for all cohorts was 6 weeks during which time subjects underwent safety evaluations in the clinic every 2 weeks. After subjects had been dosed for 4 weeks, RAD001 steady state levels were measured pre-dose and at one hour post dose. After completing the 6 week course of study drug, subjects were given a 2 week drug free break to reverse any possible RAD001-induced immunosuppression, and then were given a 2012 seasonal influenza vaccination (Agrippal®, Novartis Vaccines and Diagnostics, Siena, Italy) containing the strains H1N1 A/California/07/2009, H3N2 A/Victoria/210/2009, B/Brisbane/60/2008. Four weeks after influenza vaccination, subjects had serum collected for influenza titer measurements. Antibody titers to the 3 influenza vaccine strains as well as to 2 heterologous strains (A/H1N1 strain A/New Jersy/8/76 and A/H3N2 strain A/Victoria/361/11) were measured by standard hemagglutination inhibition assay (Kendal, A P et al. (1982) Concepts and procedures for laboratory-based influenza surveillance. Atlanta: Centers for Disease Control and Prevention B17-B35). Levels of IgG and IgM specific for the A/H1N1/California/07/2009 were measured in serum samples taken before and 4 weeks after influenza vaccination as described previously (Spensieri, F. et al. (2013) Proc. Natl. Acad. Sci. USA 110:14330-14335). Results were expressed as fluorescence intensity.\n(§2) The primary analysis of geometric mean titer ratios was done using a normal Bayesian regression model with non-informative priors. This model was fitted to each antibody titer on the log scale. The primary outcome in each model was the Day 84 measurement. The Day 63 measurement was included in the outcome vector. The model fitted using SAS 9.2 proc mixed with the prior statement. The covariance structure of the matrix was considered as unstructured (option type=UN). A flat prior was used. For the secondary analysis of seroconversion rates, logistic regression was used.\n(§3) The ability of RAD001 to improve immune function in elderly volunteers was evaluated by measuring the serologic response to the 2012 seasonal influenza vaccine. The hemagglutination inhibition (HI) geometric mean titers (GMT) to each of the 3 influenza vaccine strains at baseline and 4 weeks after influenza vaccination are provided in Table 6. The primary analysis variable was the HI GMT ratio (4 weeks post vaccination/baseline). […] This endpoint was chosen because a 1.2-fold increase in the influenza GMT ratio induced by the MF-59 vaccine adjuvant was associated with a decrease in influenza illness (Iob, A et al. (2005) Epidemiol Infect 133:687-693).\n(§4) Rates of seroconversion 4 weeks after influenza vaccination were also evaluated. Seroconversion was defined as the change from a negative pre-vaccination titer (i.e., HI titer <1:10) to post-vaccination HI titer ≥1:40 or at least 4-fold increase from a non-negative (>1:10) pre-vaccination HI titer."}, "B/Brisbane/60/2008": {"test_system": "B/Brisbane/60/2008", "experiment": "Hemagglutination inhibition titers after influenza vaccination, B vaccine strain", "assay_type": "in vivo, human", "settings": "for HI GMT ratio (CV %) B: GMT at week 4 post vaccination/GMT at baseline", "method": "as §1, §2, §3, §4"}, "[2]": {"settings": "Baseline (2 weeks prior to influenza vaccination), RAD001 0.5 mg daily"}, "[3]": {"settings": "Baseline (2 weeks prior to influenza vaccination), RAD001 5 mg weekly"}, "[4]": {"settings": "Baseline (2 weeks prior to influenza vaccination), RAD001 20 mg weekly"}, "[5]": {"settings": "Intention to Treat Population, 0.5 mg"}, "[6]": {"settings": "Intention to Treat Population, 5 mg"}, "[7]": {"settings": "Intention to Treat Population, 20 mg"}, "[8]": {"settings": "Subjects with Baseline Titers <=40, 0.5 mg"}, "[9]": {"settings": "Subjects with Baseline Titers <=40, 5 mg"}, "[10]": {"settings": "Subjects with Baseline Titers <=40, 20 mg"}, "[11]": {"settings": "Week 4 after influenza vaccination, RAD001 0.5 mg daily"}, "[12]": {"settings": "Week 4 after influenza vaccination, RAD001 5 mg weekly"}, "[13]": {"settings": "Week 4 after influenza vaccination, RAD001 20 mg weekly"}}, "note": "Marks after values point to notes of the source that are not given here.", "data": [{"smiles": "CO[C@H]1C[C@@H]2CC[C@@H](C)[C@@](O)(O2)C(=O)C(=O)N2CCCC[C@H]2C(=O)O[C@H]([C@H](C)C[C@@H]2CC[C@@H](OCCO)[C@H](OC)C2)CC(=O)[C@H](C)/C=C(\\C)[C@@H](O)[C@@H](OC)C(=O)[C@H](C)C[C@H](C)/C=C/C=C/C=C/1C", "note": "[RAD001, (1R,9S,12S,15R,16E,18R,19R,21R,23S,24E,26E,28E,30S,32S,35R)-1,18-dihydroxy-12-{(1R)-2-[(1S,3R,4R)-4-(2-hydroxyethoxy)-3-methoxycyclohexyl]-1-methylethyl}-19,30-dimethoxy-15,17,21,23,29,35-hexamethyl-11,36-dioxa-4-azatricyclo[30.3.1.0^4,9]hexatriaconta-16,24,26,28-tetraene-2,3,10,14,20-pentaone]", "values": [{"measurement": "Treatment-related AE: Diarrhea", "setting": "RAD001 20 mg weekly, N = 53", "result": "1 (1.9%) n (%)"}, {"measurement": "Treatment-related AE: Dry mouth", "setting": "RAD001 20 mg weekly, N = 53", "result": "2 (3.8%) n (%)"}, {"measurement": "Treatment-related AE: Dyspepsia", "setting": "RAD001 20 mg weekly, N = 53", "result": "2 (3.8%) n (%)"}, {"measurement": "Treatment-related AE: Erythema", "setting": "RAD001 20 mg weekly, N = 53", "result": "0 n (%)"}, {"measurement": "Treatment-related AE: Fatigue", "setting": "RAD001 20 mg weekly, N = 53", "result": "4 (7.5%) n (%)"}, {"measurement": "Treatment-related AE: Headache", "setting": "RAD001 20 mg weekly, N = 53", "result": "9 (17.0%) n (%)"}, {"measurement": "Treatment-related AE: Insomnia", "setting": "RAD001 20 mg weekly, N = 53", "result": "1 (1.9%) n (%)"}, {"measurement": "Treatment-related AE: Limb discomfort", "setting": "RAD001 20 mg weekly, N = 53", "result": "0 n (%)"}, {"measurement": "Treatment-related AE: Low density lipoprotein increased", "setting": "RAD001 20 mg weekly, N = 53", "result": "2 (3.8%) n (%)"}, {"measurement": "Treatment-related AE: Mouth ulceration", "setting": "RAD001 20 mg weekly, N = 53", "result": "9 (17.0%) n (%)"}, {"measurement": "Treatment-related AE: Mucosal inflammation", "setting": "RAD001 20 mg weekly, N = 53", "result": "2 (3.8%) n (%)"}, {"measurement": "Treatment-related AE: Neutropenia", "setting": "RAD001 20 mg weekly, N = 53", "result": "3 (5.7%) n (%)"}, {"measurement": "Treatment-related AE: Oral pain", "setting": "RAD001 20 mg weekly, N = 53", "result": "1 (1.9%) n (%)"}, {"measurement": "Treatment-related AE: Paresthesia oral", "setting": "RAD001 20 mg weekly, N = 53", "result": "0 n (%)"}, {"measurement": "Treatment-related AE: Pruritus", "setting": "RAD001 20 mg weekly, N = 53", "result": "1 (1.9%) n (%)"}, {"measurement": "Treatment-related AE: Stomatitis", "setting": "RAD001 20 mg weekly, N = 53", "result": "2 (3.8%) n (%)"}, {"measurement": "Treatment-related AE: Thrombocytopenia", "setting": "RAD001 20 mg weekly, N = 53", "result": "2 (3.8%) n (%)"}, {"measurement": "Treatment-related AE: Tongue ulceration", "setting": "RAD001 20 mg weekly, N = 53", "result": "0 n (%)"}, {"measurement": "Treatment-related AE: Urinary tract infection", "setting": "RAD001 20 mg weekly, N = 53", "result": "2 (3.8%) n (%)"}, {"measurement": "Treatment-related AEs: Patients with AE(s)", "setting": "RAD001 20 mg weekly, N = 53", "result": "27 (50.9%) n (%)"}, {"measurement": "Treatment-related AEs: Total AE(s)", "setting": "RAD001 20 mg weekly, N = 53", "result": "109 n (%)"}, {"measurement": "tolerability", "setting": "elderly volunteers, 6 weeks, particularly 0.5 mg daily and 5 mg weekly", "result": "well tolerated"}, {"measurement": "HI GMT (CV %) A/H1N1", "setting": "[1]; [2]", "result": "102.8 (186.9)"}, {"measurement": "HI GMT (CV %) A/H1N1", "setting": "[1]; [3]", "result": "84.2 (236.4)"}, {"measurement": "HI GMT (CV %) A/H1N1", "setting": "[1]; [4]", "result": "90.1 (188.4)"}, {"measurement": "HI GMT ratio (CV %) A/H1N1", "setting": "[1]; RAD001 0.5 mg daily", "result": "2.6 (302.5)"}, {"measurement": "HI GMT ratio (CV %) A/H1N1", "setting": "[1]; RAD001 5 mg weekly", "result": "2.5 (214.3)"}, {"measurement": "HI GMT ratio (CV %) A/H1N1", "setting": "[1]; RAD001 20 mg weekly", "result": "1.8 (201.5)"}, {"measurement": "Percent of subjects with seroconversion to influenza 4 weeks after vaccination, H1N1", "setting": "[1]; [5]", "result": 27, "unit": "%"}, {"measurement": "Percent of subjects with seroconversion to influenza 4 weeks after vaccination, H1N1", "setting": "[1]; [6]", "result": 27, "unit": "%"}, {"measurement": "Percent of subjects with seroconversion to influenza 4 weeks after vaccination, H1N1", "setting": "[1]; [7]", "result": 17, "unit": "%"}, {"measurement": "Percent of subjects with seroconversion to influenza 4 weeks after vaccination, H1N1", "setting": "[1]; [8]", "result": 42, "unit": "%"}, {"measurement": "Percent of subjects with seroconversion to influenza 4 weeks after vaccination, H1N1", "setting": "[1]; [9]", "result": 45, "unit": "%"}, {"measurement": "Percent of subjects with seroconversion to influenza 4 weeks after vaccination, H1N1", "setting": "[1]; [10]", "result": 36, "unit": "%"}, {"measurement": "HI GMT (CV %) A/H1N1", "setting": "[1]; [11]", "result": "190.2 (236.9)"}, {"measurement": "HI GMT (CV %) A/H1N1", "setting": "[1]; [12]", "result": "198.73(195.6)"}, {"measurement": "HI GMT (CV %) A/H1N1", "setting": "[1]; [13]", "result": "129.7 (175.9)"}, {"measurement": "HI GMT (CV %) B", "setting": "B/Brisbane/60/2008; [2]", "result": "44.2 (96.6)"}, {"measurement": "HI GMT (CV %) B", "setting": "B/Brisbane/60/2008; [3]", "result": "64.8 (87.3)"}, {"measurement": "HI GMT (CV %) B", "setting": "B/Brisbane/60/2008; [4]", "result": "58.0 (156.0)"}, {"measurement": "HI GMT ratio (CV %) B", "setting": "B/Brisbane/60/2008; RAD001 0.5 mg daily", "result": "2.5 (111.2)"}, {"measurement": "HI GMT ratio (CV %) B", "setting": "B/Brisbane/60/2008; RAD001 5 mg weekly", "result": "2.2 (112.8)"}, {"measurement": "HI GMT ratio (CV %) B", "setting": "B/Brisbane/60/2008; RAD001 20 mg weekly", "result": "2.1 (126.5)"}, {"measurement": "Percent of subjects with seroconversion to influenza 4 weeks after vaccination, B", "setting": "B/Brisbane/60/2008; [5]", "result": 27, "unit": "%"}, {"measurement": "Percent of subjects with seroconversion to influenza 4 weeks after vaccination, B", "setting": "B/Brisbane/60/2008; [6]", "result": 22, "unit": "%"}, {"measurement": "Percent of subjects with seroconversion to influenza 4 weeks after vaccination, B", "setting": "B/Brisbane/60/2008; [7]", "result": 19, "unit": "%"}, {"measurement": "Percent of subjects with seroconversion to influenza 4 weeks after vaccination, B", "setting": "B/Brisbane/60/2008; [8]", "result": "40* Percent"}, {"measurement": "Percent of subjects with seroconversion to influenza 4 weeks after vaccination, B", "setting": "B/Brisbane/60/2008; [9]", "result": 33, "unit": "%"}, {"measurement": "Percent of subjects with seroconversion to influenza 4 weeks after vaccination, B", "setting": "B/Brisbane/60/2008; [10]", "result": 28, "unit": "%"}, {"measurement": "HI GMT (CV %) B", "setting": "B/Brisbane/60/2008; [11]", "result": "98.4 (94.8)"}, {"measurement": "HI GMT (CV %) B", "setting": "B/Brisbane/60/2008; [12]", "result": "117.3 (99.9)"}, {"measurement": "HI GMT (CV %) B", "setting": "B/Brisbane/60/2008; [13]", "result": "99.2 (124.1)"}]}]}
